These results are taken from ChEMBL document CHEMBL3233012, “Synthesis, antimicrobial and cytotoxic activities of pyrimidinyl benzoxazole, benzothiazole and benzimidazole” (Eur J Med Chem, 2014).

In assay [1] the test system is Escherichia coli. Put plainly: Antimicrobial activity against Escherichia coli at 100 ug/well after 24 hrs by agar well diffusion method. The note with it: read-out: DIZ. The format is functional. (Agar diffusion results depend on both activity and mobility in agar.)
Assay [2] relates to Escherichia coli. Put plainly: Antimicrobial activity against Escherichia coli at 50 ug/well after 24 hrs by agar well diffusion method. Type of assay: functional. Conditions: read-out: DIZ.
Assay [3] concerns Pseudomonas aeruginosa. Put plainly: Antimicrobial activity against Pseudomonas aeruginosa at 100 ug/well after 24 hrs by agar well diffusion method. Type of assay: functional. Conditions: read-out: DIZ.
The subject of assay [4] is Pseudomonas aeruginosa. Briefly: Antimicrobial activity against Pseudomonas aeruginosa at 25 ug/well after 24 hrs by agar well diffusion method. The format is functional. Conditions: read-out: DIZ.
The test system of assay [5] is Staphylococcus aureus. Put plainly: Antimicrobial activity against Staphylococcus aureus at 50 ug/well after 24 hrs by agar well diffusion method. Type of assay: functional. The note with it: read-out: DIZ.
Assay [6] concerns Staphylococcus aureus. Briefly: Antimicrobial activity against Staphylococcus aureus ATCC 25923 after 24 hrs by broth dilution method. The format is functional.
The subject of assay [7] is Penicillium chrysogenum. Put plainly: Antimicrobial activity against Penicillium chrysogenum after 24 hrs by broth dilution method. The format is functional.
Assay [8] has as its system Staphylococcus aureus. Put plainly: Antimicrobial activity against Staphylococcus aureus at 25 ug/well after 24 hrs by agar well diffusion method. The note with it: read-out: DIZ. The format is functional.
Assay [9] concerns Pseudomonas aeruginosa. Put plainly: Antimicrobial activity against Pseudomonas aeruginosa at 50 ug/well after 24 hrs by agar well diffusion method. Conditions: read-out: DIZ. The format is functional.
Assay [10] deals with Escherichia coli. Briefly: Antimicrobial activity against Escherichia coli at 25 ug/well after 24 hrs by agar well diffusion method. The format is functional. Conditions: read-out: DIZ.
The subject of assay [11] is Aspergillus niger. Briefly: Antimicrobial activity against Aspergillus niger after 24 hrs by broth dilution method. The format is functional. A general note: Dilution methods test growth across graded concentrations, often in twofold steps.
Assay [12] deals with Escherichia coli. Briefly: Antimicrobial activity against Escherichia coli ATCC 25922 after 24 hrs by broth dilution method. Type of assay: functional.
The subject of assay [13] is Staphylococcus aureus. Briefly: Antimicrobial activity against Staphylococcus aureus at 100 ug/well after 24 hrs by agar well diffusion method. Type of assay: functional. Conditions: read-out: DIZ.
Assay [14] relates to Penicillium chrysogenum. Put plainly: Antimicrobial activity against Penicillium chrysogenum at 25 ug/well after 48 hrs by agar well diffusion method. Conditions: for zone of inhibition at 25 µg/disc: read-out: DIZ. Type of assay: functional.
For assay [15], the system named is Aspergillus niger. Put plainly: Antimicrobial activity against Aspergillus niger at 100 ug/well after 48 hrs by agar well diffusion method. Type of assay: functional. The note with it: read-out: DIZ.
Assay [16] has as its system Penicillium chrysogenum. Briefly: Antimicrobial activity against Penicillium chrysogenum at 50 ug/well after 48 hrs by agar well diffusion method. The format is functional. The note with it: read-out: DIZ.
In assay [17] the test system is A549. Briefly: Cytotoxicity against human A549 cells assessed as reduction in cell viability up to 200 uM after 20 hrs by MTT assay. Type of assay: functional, cell-based. Background: Tetrazolium dyes change colour on reduction, which living cells bring about.
The test system of assay [18] is Penicillium chrysogenum. Put plainly: Antimicrobial activity against Penicillium chrysogenum at 100 ug/well after 48 hrs by agar well diffusion method. The format is functional. Conditions: read-out: DIZ.
For assay [19], the system named is Aspergillus niger. Briefly: Antimicrobial activity against Aspergillus niger at 50 ug/well after 48 hrs by agar well diffusion method. The format is functional. The note with it: read-out: DIZ.
Assay [20] deals with Aspergillus niger. Briefly: Antimicrobial activity against Aspergillus niger at 25 ug/well after 48 hrs by agar well diffusion method. Type of assay: functional. Conditions: for zone of inhibition at 25 µg/disc: read-out: DIZ.
The subject of assay [21] is A549. Put plainly: Cytotoxicity against human A549 cells assessed as reduction in cell viability after 20 hrs by MTT assay. The format is functional, cell-based.
Assay [22] has as its system Pseudomonas aeruginosa. Put plainly: Antimicrobial activity against Pseudomonas aeruginosa ATCC 27853 after 24 hrs by broth dilution method. Type of assay: functional.

As a reminder, the MIC is the lowest concentration that inhibits growth of the organism. For orientation: IC50 means the concentration that gives 50% inhibition.

Values after ≈ are worked out from the molar mass of the structure shown. Active and inactive are the calls of the source. The calls are words filed in the database; no cut-off is given here.

`O=C(O)c1cn(C2CC2)c2cc(N3CCNCC3)c(F)cc2c1=O` [CIPROFLOXACIN]: the zone of inhibition at 100 µg/disc in assay [1] was determined as 38 mm; in [3], 30 mm; in assay [13] it was 27 mm. Moreover, the figures for the zone of inhibition at 50 µg/disc in assay [2], in assay [5] and in assay [9] were 35 mm, 24 mm and 28 mm, respectively. Further, the results for the zone of inhibition at 25 µg/disc in [4], in assay [8] and in assay [10] were 25 mm, 22 mm and 30 mm, respectively. The MIC in assay [6] (ATCC 25923, 24 h) worked out at 12.5 µg/mL (≈ 37.7 µM); in [12] (ATCC 25922, 24 h) it was 12.5 µg/mL (≈ 37.7 µM). In addition, the MIC result in assay [7] and in assay [11] was “inactive” throughout.
On to `Cc1cc(Sc2nc3ccccc3[nH]2)nc(SCc2nc3ccccc3[nH]2)n1`, for which the zone of inhibition at 25 µg/disc was found to be 15 mm in [14]; 14 mm in assay [4]; 13 mm in assay [8]; 17 mm in assay [10]; 14 mm in [20]. The zone of inhibition at 100 µg/disc was 22 mm in assay [1]; 17 mm in assay [15]; 18 mm in assay [3]; 19 mm in [18]; 19 mm in [13]. Moreover, the zone of inhibition at 50 µg/disc in assay [2] was 20 mm; in assay [16] it was 17 mm; in assay [5], 16 mm; in assay [9], 17 mm; in [19], 15 mm. Also, the result in [17] was inactive.
As to `Cc1cc(Cl)nc(SCc2nc3ccccc3s2)n1`, the zone of inhibition at 25 µg/disc in [14] stood at 7 mm; in [4] it was 7 mm; in [8], 6 mm; in assay [10], 7 mm. The zone of inhibition at 100 µg/disc is 14 mm in assay [1]; 10 mm in [15]; 10 mm in [3]; 11 mm in [18]; 16 mm in assay [13]. Moreover, the zone of inhibition at 50 µg/disc in [2] amounted to 10 mm; in assay [16], 9 mm; in assay [5], 4 mm; in [9], 9 mm; in [19], 8 mm. Besides, the result in assay [17] was inactive. In addition, the “diameter of the inhibition zone (DIZ)” value in [20] was “inactive”.
Take `Cc1cc(Cl)nc(SCc2nc3ccccc3o2)n1`: the “diameter of the inhibition zone (DIZ)” value in assay [14] and in assay [20] was “inactive” each time. In addition, the zone of inhibition at 100 µg/disc in [1] amounted to 11 mm; in [15], 9 mm; in assay [3], 8 mm; in assay [18], 10 mm; in assay [13] it was 8 mm. In addition, the zone of inhibition at 50 µg/disc was determined as 8 mm in [2]; 8 mm in assay [16]; 7 mm in assay [5]; 7 mm in [9]; 7 mm in assay [19]. In addition, the result in assay [17] was inactive. The zone of inhibition at 25 µg/disc in assay [4] was determined as 5 mm; in assay [8], 5 mm; in [10], 6 mm.
For `Cc1cc(Nc2nc3ccccc3[nH]2)nc(SCc2nc3ccccc3[nH]2)n1`, the zone of inhibition at 25 µg/disc in assay [14] was found to be 29 mm; in assay [4], 16 mm; in assay [8], 15 mm; in assay [10], 19 mm; in [20] it was 20 mm. Moreover, the zone of inhibition at 100 µg/disc in assay [1] worked out at 25 mm; in assay [15] it was 25 mm; in assay [3], 21 mm; in assay [18], 33 mm; in assay [13] it was 20 mm. For the same molecule, the zone of inhibition at 50 µg/disc worked out at 22 mm in assay [2]; 31 mm in [16]; 17 mm in assay [5]; 19 mm in [9]; 23 mm in assay [19]. The result in assay [17] was inactive.
Regarding `Cc1cc(Cl)nc(SCc2nc3ccccc3[nH]2)n1`, the zone of inhibition at 25 µg/disc in assay [14] was 8 mm; in assay [4], 8 mm; in assay [8], 8 mm; in assay [10], 8 mm; in assay [20], 7 mm. The zone of inhibition at 100 µg/disc in [1] worked out at 16 mm; in assay [15], 11 mm; in [3] it was 12 mm; in assay [18] it was 12 mm; in [13] it was 12 mm. Further, the zone of inhibition at 50 µg/disc in [2] was found to be 13 mm; in assay [16], 10 mm; in [5] it was 10 mm; in [9] it was 10 mm; in [19], 9 mm. The outcome in assay [17] was inactive.
With `Cc1cc(Nc2nc3ccccc3s2)nc(SCc2nc3ccccc3s2)n1`, the zone of inhibition at 25 µg/disc is 27 mm in [14]; 14 mm in assay [4]; 13 mm in assay [8]; 15 mm in [10]; 17 mm in [20]. Also, the zone of inhibition at 100 µg/disc came to 23 mm in [1]; 21 mm in assay [15]; 18 mm in assay [3]; 32 mm in [18]; 18 mm in assay [13]. The zone of inhibition at 50 µg/disc worked out at 20 mm in assay [2]; 29 mm in assay [16]; 16 mm in assay [5]; 17 mm in assay [9]; 19 mm in assay [19]. Moreover, the inhibition entry in assay [21] is “Dose-dependent effect”. In addition, the IC50 in [21] (A549, 20 h) was determined as 10.5 µM.
`Cc1cc(Sc2nc3ccccc3o2)nc(SCc2nc3ccccc3o2)n1`: the zone of inhibition at 25 µg/disc in assay [14] stood at 9 mm; in assay [4], 10 mm; in assay [8], 9 mm; in assay [10] it was 10 mm; in assay [20] it was 8 mm. For the same molecule, the zone of inhibition at 100 µg/disc in assay [1] was found to be 17 mm; in assay [15], 12 mm; in assay [3] it was 14 mm; in [18], 13 mm; in assay [13], 14 mm. Besides, the zone of inhibition at 50 µg/disc was determined as 15 mm in assay [2]; 11 mm in [16]; 11 mm in assay [5]; 11 mm in [9]; 10 mm in [19]. The outcome in assay [17] was inactive.
On to `Cc1cc(Nc2nc3ccccc3o2)nc(SCc2nc3ccccc3o2)n1`, for which the zone of inhibition at 25 µg/disc in [14] was determined as 19 mm; in assay [4] it was 11 mm; in assay [8], 10 mm; in [10] it was 12 mm; in [20] it was 15 mm. For the same molecule, the zone of inhibition at 100 µg/disc in assay [1] was 20 mm; in assay [15], 19 mm; in assay [3] it was 17 mm; in assay [18] it was 24 mm; in assay [13], 17 mm. The zone of inhibition at 50 µg/disc was determined as 17 mm in [2]; 21 mm in assay [16]; 13 mm in assay [5]; 14 mm in [9]; 17 mm in assay [19]. For the same molecule, in assay [17], the outcome was inactive.
Regarding `CC(=O)N1CCN(c2ccc(OCC3COC(Cn4ccnc4)(c4ccc(Cl)cc4Cl)O3)cc2)CC1` (stereo not drawn) [KETOCONAZOLE], the zone of inhibition at 25 µg/disc in assay [14] turned out to be 35 mm; in assay [20], 31 mm. Also, the results for the zone of inhibition at 100 µg/disc in assay [15] and in assay [18] were 36 mm and 38 mm, respectively. Besides, the values for the zone of inhibition at 50 µg/disc in assay [16] and in assay [19] were 36 mm and 33 mm, respectively. Also, the MIC entry in assay [6], in [12] and in assay [22] was “inactive” each time. The figures for the minimum inhibitory concentration (MIC) in assay [7] and in [11] were 12.5 µg/mL (≈ 23.5 µM) and 6.25 µg/mL (≈ 11.8 µM), respectively.
